This is an account of results in paper PMC11557590 (Nature Communications, 2024).

As a reminder, the Kd is the concentration at which binding is half-saturated.

The target in this assay is FLAGELLIN-SENSING 2 (FLS2) (Arabidopsis thaliana, UniProt Q9FL28). Put plainly: microscale thermophoresis. In kind it is binding.
Sequence of FLAGELLIN-SENSING 2 (FLS2) (Q9FL28 24-804): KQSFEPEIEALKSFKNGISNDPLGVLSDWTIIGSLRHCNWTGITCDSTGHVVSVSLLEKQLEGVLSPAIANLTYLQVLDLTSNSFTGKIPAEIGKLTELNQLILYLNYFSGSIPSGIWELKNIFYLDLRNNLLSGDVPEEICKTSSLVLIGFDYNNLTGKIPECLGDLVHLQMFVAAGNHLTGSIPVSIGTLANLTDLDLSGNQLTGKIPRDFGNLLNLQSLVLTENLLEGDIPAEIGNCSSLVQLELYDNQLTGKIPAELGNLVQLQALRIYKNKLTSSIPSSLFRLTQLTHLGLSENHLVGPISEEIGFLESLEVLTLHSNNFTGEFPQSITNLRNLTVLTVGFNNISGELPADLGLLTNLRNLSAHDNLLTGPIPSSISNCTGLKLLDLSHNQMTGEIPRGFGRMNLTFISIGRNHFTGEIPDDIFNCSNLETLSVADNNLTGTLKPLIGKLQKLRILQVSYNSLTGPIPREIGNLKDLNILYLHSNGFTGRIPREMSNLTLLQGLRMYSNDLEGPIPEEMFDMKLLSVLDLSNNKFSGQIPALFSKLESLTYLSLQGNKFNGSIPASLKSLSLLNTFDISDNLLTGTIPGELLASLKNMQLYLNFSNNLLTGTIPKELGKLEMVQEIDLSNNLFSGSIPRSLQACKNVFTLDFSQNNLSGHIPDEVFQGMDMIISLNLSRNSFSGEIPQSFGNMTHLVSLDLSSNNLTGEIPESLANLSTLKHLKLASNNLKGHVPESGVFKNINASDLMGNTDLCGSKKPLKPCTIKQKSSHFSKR

`C=C(C)COc1ccc2c(C)c(CC(=O)N3CCN(CC(=O)NCCN(C)C)CC3)c(=O)oc2c1C` [FIC04] had a Kd of 93.9 ± 19.5 µM.
